These results are taken from patent publication US11053234B2 (GlaxoSmithKline Intellectual Property Development Limited, priority 2016, dated 2021).

The assay addresses T1, haematopoietic prostaglandin D synthase (H-PGDS) (Homo sapiens, UniProt O60760).
T1 construct: Full length human H-PGDS cDNA (Invitrogen Ultimate ORF 10H13026) was amplified by PCR; 6-His (N); TEV protease cleavage site (N); made in house; host or cells: E. coli BL21 (DE3*), vector pET22b+
The assay is described as follows: H-PGDS RapidFire high throughput mass spectrometry assay (conversion of PGH2 to PGD2). In kind it is biochemical. To be noted: 10 nM H-PGDS, PGH2 formed in situ by COX-2 from arachidonic acid; read-out: Potency Range (mean pIC50) (converted). In outline: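 PGH2 substrate generated in situ by COX-2 (full-length human, FLAG-tagged, Sf9-expressed) from arachidonic acid at ˜10 μM, then converted by full-length human His-tagged H-PGDS (E. coli-expressed). RapidFire SPE–triple quadrupole MS measured PGD2 against PGF2α as substrate surrogate to give percent conversion.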

Where a name gives a salt, the structure may show the parent alone. Some results are limits rather than exact numbers.

T1 sequence (O60760 whole entry): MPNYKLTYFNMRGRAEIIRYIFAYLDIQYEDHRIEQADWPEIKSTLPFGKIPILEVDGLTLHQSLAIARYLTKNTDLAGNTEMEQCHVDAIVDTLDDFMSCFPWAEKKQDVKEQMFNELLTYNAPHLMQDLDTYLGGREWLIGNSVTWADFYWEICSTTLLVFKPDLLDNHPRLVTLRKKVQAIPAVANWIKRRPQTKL

In the case of `COc1ccc(F)cc1O[C@H]1C[C@H](C(=O)Nc2nc(C(C)=O)cs2)C1` [Example 163, (trans)-N-(4-Acetylthiazol-2-yl)-3-(5-fluoro-2-methoxyphenoxy)cyclobutanecarboxamide], the IC50 was 10 to 79.4 nM.

As for `COc1ccc(F)cc1O[C@H]1C[C@H](C(=O)Nc2ncc(C(C)=O)s2)C1` [Example 164, (trans)-N-(5-Acetylthiazol-2-yl)-3-(5-fluoro-2-methoxyphenoxy)cyclobutanecarboxamide], the IC50 is below 10 nM. On to `COc1ccc(F)cc1O[C@H]1C[C@H](C(=O)Nc2ncc(C(C)(C)O)s2)C1` [Example 165, (trans)-3-(5-Fluoro-2-methoxyphenoxy)-N-(5-(2-hydroxypropan-2-yl)thiazol-2-yl)cyclobutanecarboxamide], for which the IC50 is 10 to 79.4 nM.

With `COc1ccc(F)cc1O[C@H]1C[C@H](C(=O)Nc2nnc(C)s2)C1` [Example 166, (trans)-3-(5-Fluoro-2-methoxyphenoxy)-N-(5-methyl-1,3,4-thiadiazol-2-yl)cyclobutanecarboxamide], the IC50 was 10 to 79.4 nM. For `COc1ccc(F)cc1O[C@H]1C[C@H](C(=O)Nc2nc(C3CC3)cs2)C1` [Example 167, (trans)-N-(4-Cyclopropylthiazol-2-yl)-3-(5-fluoro-2-methoxyphenoxy)cyclobutanecarboxamide], the IC50 was below 10 nM. As to `COc1ccc(F)cc1O[C@H]1C[C@H](C(=O)N[C@H]2CC[C@H](C(C)(C)O)CC2)C1` [Example 168, (trans)-3-(5-Fluoro-2-methoxyphenoxy)-N-((trans)-4-(2-hydroxypropan-2-yl)cyclohexyl)cyclobutanecarboxamide], the IC50 was 10 to 79.4 nM. For `COc1ccc(F)cc1O[C@H]1C[C@H](C(=O)N[C@H]2CC[C@H](OCC(C)(C)O)CC2)C1` [Example 169, (trans)-3-(5-Fluoro-2-methoxyphenoxy)-N-((trans)-4-(2-hydroxy-2-methylpropoxy)cyclohexyl)cyclobutanecarboxamide], the IC50 is 10 to 79.4 nM. As to `CCOC(=O)c1coc(NC(=O)[C@H]2C[C@H](Oc3cccc4cccnc34)C2)n1` [Example 171, ethyl 2-((trans)-3-(quinolin-8-yloxy)cyclobutanecarboxamido)oxazole-4-carboxylate], the IC50 was 10 to 79.4 nM. For `CN(C)C(=O)c1coc(NC(=O)[C@H]2C[C@H](Oc3cccc4cccnc34)C2)n1` [Example 172, N,N-Dimethyl-2-((trans)-3-(quinolin-8-yloxy)cyclobutanecarboxamido)oxazole-4-carboxamide], the IC50 is 10 to 79.4 nM. In the case of `CC(=O)c1cnc(NC(=O)[C@H]2C[C@H](Oc3cccc4cccnc34)C2)o1` [Example 174, (trans)-N-(5-Acetvloxazol-2-yl)-3-(quinolin-8-yloxy)cyclobutanecarboxamide] it was 10 to 79.4 nM; in that of `Cc1nc(NC(=O)[C@H]2C[C@H](Oc3cccc4cccnc34)C2)oc1C` [Example 175, (trans)-N-(4,5-Dimethyloxazol-2-yl)-3-(quinolin-8-yloxy)cyclobutanecarboxamide], 10 to 79.4 nM. Turning to `CCOC(=O)c1nnc(NC(=O)[C@H]2C[C@H](Oc3cccc4cccnc34)C2)[nH]1` [Example 176, Ethyl 5-((trans)-3-(quinolin-8-yloxy)cyclobutanecarboxamido)-4H-1,2,4-triazole-3-carboxylate], the IC50 was 100 to 1000 nM. For the molecule `Cc1cnc(NC(=O)[C@H]2C[C@H](Oc3cccc4cccnc34)C2)o1` [Example 177, (trans)-N-(5-Methyloxazol-2-yl)-3-(quinolin-8-yloxy)cyclobutanecarboxamide], the IC50 was 10 to 79.4 nM. Turning to `O=C(Nc1nc(C2CC2)co1)[C@H]1C[C@H](Oc2cccc3cccnc23)C1` [Example 178, (trans)-N-(4-Cyclopropyloxazol-2-yl)-3-(quinolin-8-yloxy)cyclobutanecarboxamide], the IC50 was 10 to 79.4 nM.

As for `CC(C)(C)c1nnc(NC(=O)[C@H]2C[C@H](Oc3cccc4cccnc34)C2)o1` [Example 179, (trans)-N-(5-(tert-Butyl)-1,3,4-oxadiazol-2-yl)-3-(quinolin-8-yloxy)cyclobutanecarboxamide], the IC50 was 10 to 79.4 nM. Turning to `Cc1cccc(NC(=O)[C@H]2C[C@H](Oc3cccc4cccnc34)C2)n1` [Example 181, (trans)-N-(6-Methylpyridin-2-yl)-3-(quinolin-8-yloxy)cyclobutanecarboxamide], the IC50 was 10 to 79.4 nM. Consider `C[C@]1(O)CC[C@H](NC(=O)[C@H]2C[C@H](Oc3cccc4cccnc34)C2)CC1` [Example 182, (trans)-N-((trans)-4-Hydroxy-4-methylcyclohexyl)-3-(quinolin-8-yloxy)cyclobutanecarboxamide], for which the IC50 was 100 to 1000 nM. Consider `O=C(Nc1ccccn1)[C@H]1C[C@H](Oc2cccc3cccnc23)C1` [Example 183, (trans)-N-(Pyridin-2-yl)-3-(quinolin-8-yloxy)cyclobutanecarboxamide], for which the IC50 was 100 to 1000 nM. For `O=C(Nc1nccs1)[C@H]1C[C@H](Oc2cccc3cccnc23)C1` [Example 184, trans-3-(8-Quinolinyloxy)-N-1,3-thiazol-2-ylcyclobutanecarboxamide], the IC50 is below 10 nM. As to `CC(C)(O)[C@H]1CC[C@H](NC(=O)N2CC(Oc3cccc4cccnc34)C2)CC1` [Example 185, N-((trans)-4-(2-Hydroxypropan-2-yl)cyclohexyl)-3-(quinolin-8-yloxy)azetidine-1-carboxamide], the IC50 is 10 to 79.4 nM. Turning to `CC(=O)c1csc(NC(=O)[C@H]2C[C@H](Oc3cccc4cccnc34)C2)n1` [Example 186, trans-N-(4-Acetylthiazol-2-yl)-3-(quinolin-8-yloxy)cyclobutanecarboxamide], the IC50 is 10 to 79.4 nM. For `N#Cc1csc(NC(=O)[C@H]2C[C@H](Oc3cccc4cccnc34)C2)n1` [Example 188, (trans)-N-(4-Cyanothiazol-2-yl)-3-(quinolin-8-yloxy)cyclobutanecarboxamide, trifluoroacetic acid salt], the IC50 was below 10 nM.

As to `NC(=O)c1csc(NC(=O)[C@H]2C[C@H](Oc3cccc4cccnc34)C2)n1` [Example 189, 2-((trans)-3-(Quinolin-8-yloxy)cyclobutanecarboxamido)thiazole-4-carboxamide, trifluoroacetic acid salt], the IC50 is 10 to 79.4 nM. In the case of `N#Cc1cnc(NC(=O)[C@H]2C[C@H](Oc3cccc4cccnc34)C2)s1` [Example 190, (trans)-N-(5-Cyanothiazol-2-yl)-3-(quinolin-8-yloxy)cyclobutanecarboxamide] it was 10 to 79.4 nM; in that of `NC(=O)c1cnc(NC(=O)[C@H]2C[C@H](Oc3cccc4cccnc34)C2)s1` [Example 191, 2-((trans)-3-(Quinolin-8-yloxy)cyclobutanecarboxamido)thiazole-5-carboxamide], 10 to 79.4 nM. As for `CCOC(=O)c1csc(NC(=O)[C@H]2C[C@H](Oc3cccc4cccnc34)C2)n1` [Example 192, Ethyl 2-((trans)-3-(quinolin-8-yloxy)cyclobutanecarboxamido)thiazole-4-carboxylate], the IC50 was below 10 nM. For `O=C(O)c1csc(NC(=O)[C@H]2C[C@H](Oc3cccc4cccnc34)C2)n1` [Example 193, 2-((trans)-3-(Quinolin-8-yloxy)cyclobutanecarboxamido)thiazole-4-carboxylic acid], the IC50 was 10 to 79.4 nM.
